Biological target: SSTR4 (Homo sapiens (Human), UniProt P31391)
Experiment: Inhibition of forskolin stimulated cAMP in CHO-K1 cells overexpressing SSTR4
Assay type: cell-based
Conditions: not given
Protocol: Inhibition of Forskolin Stimulated cAMP in Cells Overexpressing SSTR4
This cell-based assay measures the ability of compounds to inhibit forskolin stimulated cAMP in CHO-K1 cells overexpressing SSTR4. CHO-K1 cells overexpressing SSTR4 (CHO-SSTR4) are purchased from DiscoveRx (product code 95-0059C2). The CHO-SSTR4 cells are maintained in F12K media with 10% Fetal Bovine Serum (Hyclone), 1% Pen/Strep (Life Technologies), and 800 μg/mL G418 (Life Technologies). […] The next day, the culture media is removed from the cells and the cells are washed (added then removed) with Kreb's Ringer Buffer (ZenBio, KRB-1000 mL). […] The cells are incubated in […] for 30 minutes at room temperature. Cellular cAMP levels are detected with a HTRF LANCE Ultra cAMP kit (Perkin Elmer, catalog number TRF0264).
The assay is performed in accordance with the manufacturer's instructions. Five μL of diluted Eu-W8044 labeled streptavidin (dilution: 1:50 in cAMP Detection Buffer) is added to each well. Then 5 μL of diluted biotin cAMP (dilution: 1:150 in cAMP Detection Buffer) is added to each well. The plates are covered and allowed to incubate for 60 minutes at room temperature on a shaker. […] The pEC50 values are generated using Activity Base for Screening Data Management.

Chain of SSTR4 (P31391 whole entry): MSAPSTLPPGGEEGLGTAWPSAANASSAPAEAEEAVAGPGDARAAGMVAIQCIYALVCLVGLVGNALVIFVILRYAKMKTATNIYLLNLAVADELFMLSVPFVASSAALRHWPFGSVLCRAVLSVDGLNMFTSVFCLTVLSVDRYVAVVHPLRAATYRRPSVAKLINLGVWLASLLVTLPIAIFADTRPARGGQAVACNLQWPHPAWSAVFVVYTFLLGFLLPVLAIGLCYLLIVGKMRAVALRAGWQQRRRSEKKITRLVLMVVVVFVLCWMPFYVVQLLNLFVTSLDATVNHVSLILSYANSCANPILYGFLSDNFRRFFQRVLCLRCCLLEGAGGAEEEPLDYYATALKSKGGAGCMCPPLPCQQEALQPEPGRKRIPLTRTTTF

Row | SMILES | SSTR4 Activity pEC50
1 | Cc1cnc(OCC(C)(C)C(=O)N[C@H]2CCN(C)C[C@H]2C)c(C)c1 (relative stereo) [Example 32, cis-N-(1,3-dimethylpiperidin-4-yl)-3-((3,5-dimethylpyridin-2-yl)oxy)-2,2-dimethylpropanamide] | 5.8
2 | CC(C)[C@@H]1CN(C)CC[C@@H]1NC(=O)C(C)(C)COc1ncccc1C(F)(F)F (relative stereo) [Example 34, cis-N-(3-isopropyl-1-methylpiperidin-4-yl)-2,2-dimethyl-3-((3-(trifluoromethyl)pyridin-2-yl)oxy)propanamide] | 6.1
3 | C[C@@H]1CN(C)CC[C@H]1NC(=O)C(F)(F)COc1ncccc1C(F)(F)F (relative stereo) [Example 189, trans-N-(1,3-dimethylpiperidin-4-yl)-2,2-difluoro-3-((3-(trifluoromethyl)pyridin-2-yl)oxy)propanamide] | 6.8

Other lines, results leading:

Row | SSTR4 Activity pEC50 | SMILES
4 | 6.6 | CN1CC[C@@H](NC(=O)C(C)(C)COc2ncccc2C(F)(F)F)[C@H](c2ccccc2)C1 (relative stereo) [Example 164, 2,2-dimethyl-N-(trans-1-methyl-3-phenylpiperidin-4-yl)-3-((3-(trifluoromethyl)pyridin-2-yl)oxy)propanamide]
5 | 6.8 | CN1CC[C@@H](NC(=O)C(C)(C)COc2ncccc2OC(F)(F)F)[C@H](c2ccccc2)C1 (relative stereo) [Example 167, 2,2-dimethyl-N-(trans-1-methyl-3-phenylpiperidin-4-yl)-3-((3-(trifluoromethoxy)pyridin-2-yl)oxy)propanamide]

Same assay, conditions: read-out: SSTR4 Activity pEC50 (converted)

Row | SMILES | EC50
6 | C[C@@H]1CN(C)CC[C@@H]1NC(=O)C(C)(C)COc1ncccc1OC(F)(F)F (racemic) [Example 14, cis-N-(1,3-dimethylpiperidin-4-yl)-2,2-dimethyl-3-((3-(trifluoromethoxy)pyridin-2-yl)oxy)propanamide] | 79.4 nM
7 | C[C@@H]1CN(C)CC[C@@H]1NC(=O)C(C)(C)COc1ncccc1C1CC1 (racemic) [Example 21, cis-3-((3-cyclopropylpyridin-2-yl)oxy)-N-(1,3-dimethylpiperidin-4-yl)-2,2-dimethylpropanamide] | 25.1 nM
8 | CC(C)[C@@H]1CN(C)CC[C@H]1NC(=O)C(C)(C)COc1ncccc1C(F)(F)F (relative stereo) [Example 33, trans-N-(3-isopropyl-1-methylpiperidin-4-yl)-2,2-dimethyl-3-((3-(trifluoromethyl)pyridin-2-yl)oxy)propanamide] | 0.794 nM
9 | CCO[C@@H]1CN(C)C[C@H]1NC(=O)C(C)(C)COc1ccccc1CC (relative stereo) [Example 95, trans-N-(4-ethoxy-1-methylpyrrolidin-3-yl)-3-(2-ethylphenoxy)-2,2-dimethylpropanamide] | 79.4 nM
10 | CCc1ccccc1OCC(C)(C)C(=O)N[C@@H]1CN(C)C[C@H]1OC (relative stereo) [Example 96, trans-3-(2-ethylphenoxy)-N-(4-methoxy-1-methylpyrrolidin-3-yl)-2,2-dimethylpropanamide] | 200 nM
11 | CC(C)(COc1ncccc1C(F)(F)F)C(=O)N[C@@H]1CNC[C@H]1F (relative stereo) [Example 130, trans-N-(4-fluoropyrrolidin-3-yl)-2,2-dimethyl-3-((3-(trifluoromethyl)pyridin-2-yl)oxy)propanamide] | 251 nM
12 | C[C@H]1C[C@H](NC(=O)C(C)(C)COc2ncccc2C(F)(F)F)CN1C (relative stereo) [Example 133, trans-N-(1,5-dimethylpyrrolidin-3-yl)-2,2-dimethyl-3-((3-(trifluoromethyl)pyridin-2-yl)oxy)propanamide] | 631 nM
13 | C[C@@H]1C[C@H](NC(=O)C(C)(C)COc2ncccc2C(F)(F)F)CN1C (relative stereo) [Example 134, cis-N-(1,5-dimethylpyrrolidin-3-yl)-2,2-dimethyl-3-((3-(trifluoromethyl)pyridin-2-yl)oxy)propanamide] | 2000 nM
14 | C[C@H]1C[C@H](NC(=O)C(C)(C)COc2ncccc2OC(F)(F)F)CCN1C (relative stereo) [Example 135, trans-N-(1,2-dimethylpiperidin-4-yl)-2,2-dimethyl-3-((3-(trifluoromethoxy)pyridin-2-yl)oxy)propanamide] | 25.1 nM
15 | CC[C@H]1[C@H](NC(=O)C(C)(C)COc2ncccc2C(F)(F)F)CCN1C (relative stereo) [Example 149, trans-N-(2-ethyl-1-methylpyrrolidin-3-yl)-2,2-dimethyl-3-((3-(trifluoromethyl)pyridin-2-yl)oxy)propanamide] | 126 nM
16 | CC(C)(COc1ncccc1C(F)(F)F)C(=O)O[C@@H]1CCNC[C@H]1c1ccccc1 (relative stereo) [Example 171, trans-3-phenylpiperidin-4-yl 2,2-dimethyl-3-((3-(trifluoromethyl)pyridin-2-yl)oxy)propanoate] | 316 nM
17 | Cc1cnc(OCC(C)(C)C(=O)N[C@@H]2CN(C)C[C@H]2C)c(C)c1 (relative stereo) [Example 183, 3-((3,5-dimethylpyridin-2-yl)oxy)-N-(trans-1,4-dimethylpyrrolidin-3-yl)-2,2-dimethylpropanamide] | 251 nM

Second part, the molecule after the results:

Row | EC50 | SMILES
18 | 126 nM | C[C@@H]1CN(C)CC[C@@H]1NC(=O)C(C)(C)COc1ncccc1C(F)(F)F (racemic) [Example 12, cis-N-(1,3-dimethylpiperidin-4-yl)-2,2-dimethyl-3-((3-(trifluoromethyl)pyridin-2-yl)oxy)propanamide]
19 | 31.6 nM | Cc1cccnc1OCC(C)(C)C(=O)N[C@@H]1CN(C)C[C@H]1c1ccc(Cl)cc1 (relative stereo) [Example 55, trans-N-(4-(4-chlorophenyl)-1-methylpyrrolidin-3-yl)-2,2-dimethyl-3-((3-methylpyridin-2-yl)oxy)propanamide]
20 | 25.1 nM | CN1C[C@@H](NC(=O)C(C)(C)COc2ncccc2C(F)(F)F)[C@H](c2ccc(Cl)cc2)C1 (relative stereo) [Example 56, trans-N-(4-(4-chlorophenyl)-1-methylpyrrolidin-3-yl)-2,2-dimethyl-3-((3-(trifluoromethyl)pyridin-2-yl)oxy)propanamide]
21 | 63.1 nM | Cc1cccnc1OCC(C)(C)C(=O)N[C@@H]1CN(C)C[C@H]1c1ccc(C(F)(F)F)nc1 (relative stereo) [Example 57, trans-2,2-dimethyl-N-(1-methyl-4-(6-(trifluoromethyl)pyridin-3-yl)pyrrolidin-3-yl)-3-((3-methylpyridin-2-yl)oxy)propanamide]
22 | 31.6 nM | CN1C[C@@H](NC(=O)C(C)(C)COc2ncccc2C(F)(F)F)[C@H](c2ccc(C(F)(F)F)nc2)C1 (relative stereo) [Example 59, trans-2,2-dimethyl-N-(1-methyl-4-(6-(trifluoromethyl)pyridin-3-yl)pyrrolidin-3-yl)-3-((3-(trifluoromethyl)pyridin-2-yl)oxy)propanamide]
23 | 79.4 nM | Cc1ccc([C@@H]2CN(C)C[C@H]2NC(=O)C(C)(C)COc2ncccc2C)cn1 (relative stereo) [Example 60, trans-2,2-dimethyl-N-(1-methyl-4-(6-methylpyridin-3-yl)pyrrolidin-3-yl)-3-((3-methylpyridin-2-yl)oxy)propanamide]
24 | 63.1 nM | Cc1ccc([C@@H]2CN(C)C[C@H]2NC(=O)C(C)(C)COc2ncccc2C2CC2)cn1 (relative stereo) [Example 61, trans-3-((3-cyclopropylpyridin-2-yl)oxy)-2,2-dimethyl-N-(1-methyl-4-(6-methylpyridin-3-yl)pyrrolidin-3-yl)propanamide]
25 | 200 nM | Cc1cnc(OCC(C)(C)C(=O)N[C@@H]2CN(C)C[C@H]2c2ccc(Cl)cc2)c(C)c1 (relative stereo) [Example 93, trans-N-(4-(4-chlorophenyl)-1-methylpyrrolidin-3-yl)-3-((3,5-dimethylpyridin-2-yl)oxy)-2,2-dimethylpropanamide]
26 | 20 nM | CN1C[C@@H](NC(=O)C(C)(C)COc2ncccc2C2CC2)[C@H](c2ccc(Cl)cc2)C1 (relative stereo) [Example 94, trans-N-(4-(4-chlorophenyl)-1-methylpyrrolidin-3-yl)-3-((3-cyclopropylpyridin-2-yl)oxy)-2,2-dimethylpropanamide]
27 | 631 nM | Cc1ccc([C@@H]2CN(CC#N)C[C@H]2NC(=O)C(C)(C)COc2ncccc2C(F)(F)F)cn1 (relative stereo) [Example 103, trans-N-(1-(cyanomethyl)-4-(6-methylpyridin-3-yl)pyrrolidin-3-yl)-2,2-dimethyl-3-((3-(trifluoromethyl)pyridin-2-yl)oxy)propanamide]
28 | 1.58 nM | CN1CC[C@@H](NC(=O)C(C)(C)COc2ncccc2OC(F)(F)F)[C@H](c2cnn(C(F)F)c2)C1 (relative stereo) [Example 126, trans-N-(3-(1-(difluoromethyl)-1H-pyrazol-4-yl)-1-methylpiperidin-4-yl)-2,2-dimethyl-3-((3-(trifluoromethoxy)pyridin-2-yl)oxy)propanamide]
29 | 251 nM | CN1CC[C@@H](c2cnn(C)c2)[C@H](NC(=O)C(C)(C)COc2ncccc2C(F)(F)F)C1 (relative stereo) [Example 169, 2,2-dimethyl-N-(trans-1-methyl-4-(1-methyl-1H-pyrazol-4-yl)piperidin-3-yl)-3-((3-(trifluoromethyl)pyridin-2-yl)oxy)propanamide]

Reference: US11045457B2, “Piperidinyl-3-(aryloxy)propanamides and propanoates” (priority 2018, dated 2021)
